Test results from US5925618A, “Peptides useful as somatostatin antagonists” (American Cyanamid Company, priority 1998, dated 1999).
Square brackets hold non-standard residues; d marks the D form. Peptide text beside a SMILES is read from it.

Legend:
[1] = biological target: T1, rat SSTR2 (Rattus norvegicus, UniProt P30680); assay: cAMP accumulation in forskolin-stimulated GH4 C1/SSTR2 cells; assay type: cell-based
T1 construct: expressed in transfected cells; host or cells: GH4C1 rat pituitary tumor cells
Excerpt: A primary effect of SRIF upon mammalian cells is the reduction of cyclic adenosine 3',5'-monophosphate(cAMP) levels, via inhibition of adenylyl cyclase. This is the basis of a common assay for SRIF agonists and antagonists, whereby SRIF agonists reduce artificially stimulated cAMP levels, and SRIF antagonists reverse the effect of SRIF. The rat pituitary tumor cell line GH4 C1 predominantly expresses SSTR2, and responds to SRIF and to forskolin, a stimulator of adenylate cyclase (see C. M. Eppler, et al., J. Biol. Chem., 267, 15603-15612, 1992, incorporated herein by reference). A highly sensitive assay for SRIF agonists and antagonists results from additionally transfecting GH4 C1 cells with the cloned rat SSTR2, (see L. A. Price, et al., Molecular and Cellular Biology, 15, 6188-6195, 1995, incorporated herein by reference). This increases the response to SRIF and provides a greater dynamic range for the measurement of SRIF antagonist activity.
Stimulation of cells. GH4 C1 /SSTR2 cells, grown in DMEM with 10% bovine serum, are released from a tissue culture dish by incubation for several minutes at 37° C. with PBS containing 0.5 mM EDTA. Cells are washed in induction buffer (PBS containing 100 μM IBMX (an inhibitor of cAMP breakdown) and 2 mM CaCl2) at room temperature, and resuspended at 2×10^6 /mL in induction buffer. Into each well of a 96-well tray are added 50 μL of a 2× concentration of stimulants in induction buffer. These include (at final concentration) 1.25 μM forskolin, 100 nM SRIF or 10 nM of the SSTR2-selective agonist MK678 and test peptides at various concentrations. To initiate stimulation of the cells, 50 μL (100,000) cells are added to each well, mixed by shaking 10 seconds on a plate shaker and placed at 37° C. for 15 minutes. Stimulation is arrested and cells are lysed by adding 15 μL 0.33N HCl to each well and incubating the plate for 30 minutes at 37° C. Samples are neutralized by addition of 15 μL 0.25N NaOH/50 mM Hepes pH 7.4. Baseline cAMP levels are determined in samples with no added forskolin or SRIF, and each treatment is performed in triplicate.
cAMP assay. To measure accumulated cAMP in the samples, a radioimmunoassay is employed. The scintillation proximity assay (SPA, Amersham, Arlington Heights, Ill.) allows the rapid measurement of ^125 I cAMP bound to a specific antibody without separating bound radioligand from free radioligand. Each of the following reagents (50 μL) are added per well in a 96-well tray: supernatants from the cell stimulation; ^125 I cAMP; SPA beads conjugated to monkey anti-rabbit IgG antibodies; and rabbit anti-cAMP antibodies. For the standard curve, known amounts of cAMP (0.2-12.8 pmol) are added in place of cell supernatants. The 96-well tray is sealed, shaken at room temperature overnight and measured for bound radioligand in a MicroBeta liquid scintillation counter (Wallac, Gaithersburg, Md.). The standard curve is determined for each experiment by performing a nonlinear regression (exponential decay) analysis of cpm measured for the cAMP standards vs. their log concentrations, and test sample values are determined by using Prism software (Graphpad Software Inc., San Diego, Calif.) and are shown in Table II and FIG. 1. FIG. I illustrates the antagonist activity of Peptide 1.
The intrinsic activity of an SRIF antagonist is the percent reversal of the SSTR2, activation by SRIF or MK678, wherein 0% is defined by cAMP levels in samples treated with forskolin plus SRIF or MK678 and 100% is the cAMP level measured after treatment with forskolin alone. Therefore, increased intrinsic activity of a test compound indicates increased antagonist activity of said test compound.
FIG. […]
An inverse agonist is a compound that is not only a pure antagonist (i.e. lacking agonist activity), but also blocks the constitutive activity of an unoccupied receptor. One indication of inverse agonist activity is the ability of a SRIF antagonist to increase cAMP levels in the absence of added SRIF. […]

[2] = test system: Male Sprague-Dawley rats; assay: Spontaneous growth hormone secretory pulses in conscious rats; assay type: in vivo, rat; conditions: 300 μg/hr i.v. infusion for two hours
Procedure: Evaluation in conscious rats. Male Sprague-Dawley rats are fitted so as to allow efficient intravenous treatment with control and test compounds as well as frequent blood sampling. Blood samples are tested for growth hormone (GH) levels by radioimmunoassay. Blood samples are taken over a 12 hour period. At a 6 hour time point, peptide 1 is infused intravenously (300 μg/hr) into conscious, freely moving male rats for two hours. Control animals receive saline infusions over the same time period. […] It is known, SRIF is required for growth hormone pulsatility and that an SRIF antagonist abolishes said pulsatility (see Tannenbaum, G. S. and Ling, N., Endocrinology, 115, 1952-1957, 1984, incorporated herein by reference).

T1 sequence (P30680 whole entry): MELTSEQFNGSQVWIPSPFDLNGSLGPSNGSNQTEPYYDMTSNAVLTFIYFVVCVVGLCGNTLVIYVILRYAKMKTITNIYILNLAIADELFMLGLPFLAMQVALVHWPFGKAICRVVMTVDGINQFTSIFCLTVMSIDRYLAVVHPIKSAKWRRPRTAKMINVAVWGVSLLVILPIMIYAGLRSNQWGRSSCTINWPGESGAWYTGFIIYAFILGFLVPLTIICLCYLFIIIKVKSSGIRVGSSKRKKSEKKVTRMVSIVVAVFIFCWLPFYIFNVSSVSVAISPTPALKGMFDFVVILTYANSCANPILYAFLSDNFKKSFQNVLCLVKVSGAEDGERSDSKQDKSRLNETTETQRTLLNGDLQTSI

cAMP ([1]; Forskolin 1.25 μM + MK 678 10 nM, Peptide 1 1 μM): 1.14 pM per 4 × 10^4 cells
cAMP ([1]; Forskolin 1.25 μM + MK 678 10 nM, Peptide 1 10 μM): 2.69 pM per 4 × 10^4 cells
cAMP ([1]; Forskolin 1.25 μM + MK 678 10 nM, Peptide 1 50 μM): 3.32 pM per 4 × 10^4 cells
cAMP ([1]; Forskolin 1.25 μM, no MK 678, Peptide 1 1 μM): 2.57 pM per 4 × 10^4 cells
cAMP ([1]; Forskolin 1.25 μM, no MK 678, Peptide 1 10 μM): 3.05 pM per 4 × 10^4 cells
cAMP ([1]; Forskolin 1.25 μM, no MK 678, Peptide 1 50 μM): 3.33 pM per 4 × 10^4 cells
SMILES: CC[C@@H](C)[C@@H](NC(=O)[C@@H](Cc1ccccc1)NC(=O)[C@@H](Cc1c[nH]cn1)NC(C)=O)C(=O)N[C@H](CCCNC(=N)N)C(=O)N[C@H](Cc1c[nH]c2ccccc12)C(=O)N[C@H](Cc1ccccc1)C(N)=O [Peptide 1, h-f-i-r-w-f] (Ac-[dH][dF][dI][dR][dW][dF]-NH2)
mode of antagonism from agonist dose response curves ([1]; S-14 or MK678 dose response with or without peptide 1): directly competing with the SRIF agonists
forskolin-stimulated cAMP levels in the absence of SRIF (inverse agonist activity) ([1]; no added SRIF): causes an increase in forskolin-stimulated cAMP levels even in the absence of SRIF
spontaneous growth hormone secretory pulses [2]: abolition of these pulses
